From patent US20190359653A1, “SELECTIVE PEPTIDE INHIBITORS OF FRIZZLED” (Genentech, Inc., priority 2016, published 2019)

How the values were obtained:
[1] = system: organoids derived from Lgr5-GFP mice; assay: flow cytometry of Lgr5-GFP stem cells in organoids; assay type: cell-based, mouse; settings: compared to control DMSO; FIGS. 41A-41C
Description: The pharmacological effect of dFz7-21 was further investigated by conducting RNA sequencing on intestinal organoid samples that were treated with dFz7-21 for 6 and 24 h. […] Concurrently, there was also an up-regulation of enterocyte markers (pro-differentiation) in the dFz7-21 treated organoids. Among the most down regulated genes upon dFz7-21 treatment were Lgr5, Olfm4 and Asc12. […] Finally, to assess the effect of dFz7-21 directly on stem cells, the presence of GFP+ stem cells in organoids derived from Lgr5-GFP mice was monitored as described in Tian, H. et al. “A reserve stem cell population in small intestine renders Lgr5-positive cells dispensable.” Nature 478, 255-259 (2011). Treatment with dFz7-21 reduced the number of Lgr5-GFP stem cells compared to control DMSO as assayed by flow cytometry (see FIGS. 41A-41C) and confocal microscopy (data not shown). In FIGS. 41A and 41B, Lgr5-GFP organoids were dissociated, treated with SYTOX and analyzed by flow cytometry.

[2] = system: receptor-independent β-catenin signaling in 6-BIO-treated HEK293-TB cells; assay: epistasis study, HEK293-TB cells stimulated with 6-BIO; assay type: cell-based; settings: 10 μM 6-BIO, 6 hr; FIG. 2E
[3] = system: Wnt1-stimulated β-catenin signaling in HEK293-TB cells; assay: luciferase reporter assay, HEK293-TB cells transfected with pCDNA3.2-Wnt1; assay type: cell-based
[4] = molecular target: T1, Wnt5a binding to FZD7 CRD (Homo sapiens, UniProt O75084); assay: ELISA of Wnt5a binding to FZD7 CRD, Fz7-21-derived peptide dimers; settings: FIGS. 23A-23J
T1 construct: hFZD7 CRD-Fc (cat no. 6178-FZ); purchased R&D systems 6178-FZ
Description: 384-well Maxisorp plates (cat. no. 464718; Thermo Scientific) were incubated with 30 μL of Neutravidin (cat. no. 31000, Thermo Scientific; 2 μg/mL in PBS) overnight at 4° C. Plates were then washed with PBST and blocked with PBS/1% BSA for 1 hour at RT and then washed with PBST prior to further processing. The binding assay was conducted in 96 well plates (cat no. 83007-374; VWR) which were blocked with PBS/1% BSA overnight at 4° C. hFZD4 CRD-Fc or hFZD7 CRD-Fc (63 ng/mL) were incubated with either Bio-Wnt3a (25 ng/mL) or Bio-Wnt5a (50 ng/mL) in the presence of 4-fold serial dilutions of the indicated peptide in PBS overnight at 4° C. All assays included hFZD9 CRD-mIgG2A protein as a negative control. hFZD7 CRD-His was suspended in 150 mM NaCl, 50 mM Tris-HCl at pH 7.5 and when used in assays an equal volume of the same buffer control was used. The binding assay mixtures were transferred to the Neutravidin coated plates and incubated for ˜1 h at RT. […] The signal was developed with the addition of TMB reagent (following the manufacturer's recommendation; KPL; 50-76-00) for 15 min prior to the addition of an equal volume of 1 M phosphoric acid for 10 min Absorbance was measured at 450 nm using a Tekan M1000 plate reader. […]

[5] = system: Wnt3a binding to FZD1 CRD, FZD2 CRD, and FZD7 CRD; assay: ELISA of biotinylated Wnt3a binding to FZD CRD-Fc; settings: peptide 0-10 μM
Description: 384-well Maxisorp plates (cat. no. 464718; Thermo Scientific) were incubated with 30 μL of Neutravidin (cat. no. 31000, Thermo Scientific; 2 μg/mL in PBS) overnight at 4° C. Plates were then washed with PBST and blocked with PBS/1% BSA for 1 hour at RT and then washed with PBST prior to further processing. The binding assay was conducted in 96 well plates (cat no. 83007-374; VWR) which were blocked with PBS/1% BSA overnight at 4° C. hFZD4 CRD-Fc or hFZD7 CRD-Fc (63 ng/mL) were incubated with either Bio-Wnt3a (25 ng/mL) or Bio-Wnt5a (50 ng/mL) in the presence of 4-fold serial dilutions of the indicated peptide in PBS overnight at 4° C. All assays included hFZD9 CRD-mIgG2A protein as a negative control. hFZD7 CRD-His was suspended in 150 mM NaCl, 50 mM Tris-HCl at pH 7.5 and when used in assays an equal volume of the same buffer control was used. The binding assay mixtures were transferred to the Neutravidin coated plates and incubated for ˜1 h at RT. The wells were then washed with PBST, incubated with anti-hIgG1-HRP (1:10,000 suspended in PBS supplemented with 1% BSA; cat. no. A18817, Invitrogen), and washed again with PBST. The signal was developed with the addition of TMB reagent (following the manufacturer's recommendation; KPL; 50-76-00) for 15 min prior to the addition of an equal volume of 1 M phosphoric acid for 10 min Absorbance was measured at 450 nm using a Tekan M1000 plate reader. Values were collected and plotted using Prism Graphpad software. All assay conditions using peptides were at 1% DMSO final concentration.
Without being bound be theory, the substantial conformational change induced by dFz7-21 on hFZD7 CRD, as exemplified by the altered geometry of the lipid binding cavity, may facilitate the accommodation of two Wnt molecules simultaneously onto the hFZD7 CRD dimer (FIG. 4e-h).
Similar results were observed using Wnt3a. […] Binding of Wnt3a to FZD1 CRD, FZD2 CRD, and FZD7 CRD increased in the presence of dFz7-21 at concentrations below about 0.5 μM (FIG. 22E), with the most binding seen in the presence of 0.01 μM-0.05 μM dFz7-21. […] Fz7-21S had no effect on Binding of Wnt3a to any of the FZD CRDs tested (FIG. 22F).

hFZD7 CRD-His = molecular target: T2, hFZD7 CRD-His (Homo sapiens, UniProt O75084); assay: SEC-MALS of hFZD7 CRD-His incubated with peptide; assay type: binding
T2 construct: hFZD7 CRD-His [Gln33-Gly168] was expressed as a secreted protein in Trichoplusia ni cells expressing EndoH; made in house; host or cells: Trichoplusia ni cells expressing EndoH, treated with Kifunensine (baculovirus)
Description: Samples were resolved by a Superdex S200 3.2/300 column (General Electric Healthcare Life Science, Pittsburgh, Pa.; cat. no. 28990946) at 0.15 mL/min in 150 mM NaCl, 50 mM Tris-HCl pH 7.5 buffer with 1% DMSO final concentration. Runs were performed on a 1260 infinity HPLC (Agilent Technology, Santa Clara, Calif.) connected to a Dawn Heleos-II multi-angle static Light Scattering (MALS) detector and a Optilab T-rEX differential Refractive Index (dRI) detector (Wyatt Technologies, Santa Barbara, Calif.).
Samples were resolved by a Superdex S200 3.2/300 column (General Electric Healthcare Life Science, Pittsburgh, Pa.; 28990946) at a 0.15 mL/min in 150 mM NaCl, 50 mM Tris-HCl pH 7.5 buffer with 1% DMSO final concentration. Column was connected to a 1260 infinity HPLC (Agilent Technology, Santa Clara, Calif.) connected to a Dawn Heleos-II Multi-Angle static Light Scattering (MALS) detector and the Optilab T-rEX differential Refractive Index (dRI) detectors (Wyatt Technologies, Santa Barbara, Calif.).

Sequence	number of Lgr5-GFP stem cells [1]	inhibition of Wnt signaling in 6-BIO-treated cells [2]	inhibition of Wnt1 signaling [3]	effect on recruitment of Wnt5a to FZD7 CRD [4]	effect on Wnt3a binding to FZD1, FZD2 and FZD7 CRD [5]	ΔMW (kDa) (hFZD7 CRD-His; 1:10, relative to the DMSO control)	MW (kDa) (hFZD7 CRD-His; protein:peptide 1:10)
LPSDDLEFWCHVMY [dFz7-21]	reduced						
LPSDDLEFWSHVMY [Fz7-21S, negative control]		Neither Fz7-21 nor Fz7-21S inhibited	not found to inhibit	no effect	showed no effect	2.6	23.5
